Data as given in patent US20080138853A1, “Method for evaluating the degree of maturity of corneocytes” (priority 2000, published 2008).

Key:
[1] = test system: horny layer of upper arm inside (cornified envelope); assay: Involucrin-positive CE in experimental rough skin on the inside of the upper arm; type: in vivo, human; conditions: SDS-induced experimental rough skin, 3 to 4 specimens, non-treated group 0.09 ± 0.04
Excerpt: A cellophane adhesive tape was adhered on a face (cheek) and an upper arm of an examinee having skin troubles such as rough skin and immediately peeled off. […] The insoluble substances thus obtained was CE.
A result obtained by staining CE originating in the face of a person troubled with rough skin in the manner described above is shown in FIG. 1 (drawing substitute photograph), and shown in FIG. 2 (drawing substitute photograph) is a result obtained by staining CE originating in a horny layer obtained by experimental rough skin induced by sodium dodecylsulfate (SDS) processing or tape stripping on inside of upper arm without any skin troubles.
Further, the proportions of the involucrin-positive CE's in the SDS treated group and the tape stripping group in the experimental rough skin described above are shown in Table 1 in comparison with that of the involucrin-positive CE in the non-processed group (each 3 to 4 specimens).

[2] = test system: human epidermal keratinocytes; assay: CE formation-promoting effect in cultured epidermal keratinocytes (involucrin immunostaining and Nile Red staining of CE); type: cell-based; conditions: 100 μM fatty acid in MEM containing 0.1% bovine serum albumin, confluent keratinocytes, cultured one week; growth medium control 15.83 ± 3.49
Excerpt: Further, culture was continued for one week. […] The insoluble substances thus obtained were CE.

`CCCCCCCCCCCCOS(=O)(=O)[O-].[Na+]` [SDS, sodium dodecylsulfate] was tested, and the “Proportion of involucrin-positive CE (%) average ± SD” value (shortened to “Proportion … (%) average ± SD”) [1] was 6.21 ± 2.96%.
With `CCCCC/C=C\C/C=C\CCCCCCCC(=O)O` [linoleic acid] the “Proportion … (%) average ± SD” value [2] was 0 (not detected) %.
In the case of `CCCCCCCC/C=C\CCCCCCCC(=O)O` [oleic acid], the “Proportion … (%) average ± SD” value [2] is reported as 0 (not detected) %.
